Source: patent US20240148821A1, “PHARMACEUTICAL USE OF CYCLIC PEPTIDE COMPOUND” (CHUGAI SEIYAKU KABUSHIKI KAISHA, priority 2021, published 2024)
Bridge positions count the residues as written; N and C are the ends. Square brackets hold non-standard residues; d marks the D form. Peptide text beside a SMILES is read from it. * marks the point of attachment. hPhe(3,5-F2-4-CF3) = N[C@@H](CCc1cc(F)c(C(F)(F)F)c(F)c1)C(=O)O; hPhe(3-Cl-4-CF3) = N[C@@H](CCc1ccc(C(F)(F)F)c(Cl)c1)C(=O)O; NMeAbu(4,4,4-F3) = CN[C@@H](CC(F)(F)F)C(=O)O; NMePhe(4-Cl) = CN[C@@H](Cc1ccc(Cl)cc1)C(=O)O; NMePhe(4-Me) = CN[C@@H](Cc1ccc(C)cc1)C(=O)O; NMePhe(3-F) = CN[C@@H](Cc1cccc(F)c1)C(=O)O; hPhe(3-Cl) = N[C@@H](CCc1cccc(Cl)c1)C(=O)O; NMeAla(cPent) = CN[C@@H](CC1CCCC1)C(=O)O; hNle(7,7-F2) = N[C@@H](CCCCC(F)F)C(=O)O; NMeGly(cPent) = CN[C@H](C(=O)O)C1CCCC1; Pro(4,4-F2) = O=C(O)[C@@H]1CC(F)(F)CN1; NMeCha = CN[C@@H](CC1CCCCC1)C(=O)O; NMeChg = CN[C@H](C(=O)O)C1CCCCC1; NMeF = CN[C@@H](Cc1ccccc1)C(=O)O; NMeI = CC[C@H](C)[C@H](NC)C(=O)O; NMeD = CN[C@@H](CC(=O)O)C(=O)O; NMeL = CN[C@@H](CC(C)C)C(=O)O; NMehSer = CN[C@@H](CCO)C(=O)O; NMeV = CN[C@H](C(=O)O)C(C)C; Trifluoroethyl = FC(F)(F)C*; d(β3hA) = C[C@@H](N)CC(=O)O; NMeA = CN[C@@H](C)C(=O)O; NMeAib = CNC(C)(C)C(=O)O; Nle = CCCC[C@H](N)C(=O)O; Piperidide = C1CCN(*)CC1; Pyrrolidide = C1CCN(*)C1; Ac5c = NC1(C(=O)O)CCCC1; Aze = O=C(O)[C@@H]1CCN1; Sar = CNCC(=O)O

Test system: Human pancreatic cancer cell line AsPC-1 (G12D mutation Kras)
Assay: AsPC-1 cell growth inhibition (AsPC-1 CGI)
Format: cell-based
Conditions: read-out: AsPC-1 cell growth inhibition, 50% growth inhibitory concentration (IC50 value); 96 hours, CellTiter-Glo, values classified in ranges
Procedure: Test compounds were serially dilated with dimethyl sulfoxide, and 200 nL was then dispensed to a U-bottom 96-well plate using Labcyte Echo. […] The cell suspension was dispensed to a. plate containing a test compound at 100 μL per well and incubated at 37° C. in a 5% carbon dioxide gas incubator. 96 hours later, 80 μL of CellTiter-Glo (Promega) was added to each well and fluorescence was measured.

How did the IC50 turn out when `CC(C)C[C@H]1C(=O)N[C@@H](COCC(F)(F)F)C(=O)N(C)CC(=O)N(C)CC(=O)N(C)[C@@H](CC2CCCCC2)C(=O)N(C)CC(=O)N[C@@H](CCc2ccc(C(F)(F)F)c(Cl)c2)C(=O)N2CCC[C@H]2C(=O)NC2(CCCC2)C(=O)N(C)[C@@H](C2CCCCC2)C(=O)N(C)[C@H](C(=O)N2CCCCC2)CC(=O)N1C` [Compound 894] ([NMeL]S(Trifluoroethyl)[Sar][Sar][NMeCha][Sar][hPhe(3-Cl-4-CF3)]P[Ac5c][NMeChg][NMeD]-Piperidide; lactam N-11) was run?
Its IC50 is over 500 nM.

Which IC50 does the source give for `CC[C@H](C)[C@@H]1NC(=O)[C@H](C)N(C)C(=O)C[C@@H](C)NC(=O)[C@H](C(C)C)N(C)C(=O)[C@H](Cc2ccccc2)N(C)C(=O)[C@H](CC(C)C)N(C)C(=O)[C@H](CCc2ccc(C(F)(F)F)c(Cl)c2)NC(=O)CN(C)C(=O)[C@H](Cc2ccc(Cl)cc2)N(C)C(=O)[C@@H]2CCN2C(=O)CN(C)C1=O` [Compound 994] (cyclo([Aze][NMePhe(4-Cl)][Sar][hPhe(3-Cl-4-CF3)][NMeL][NMeF][NMeV][d(β3hA)][NMeA]I[Sar])) here?
The IC50 was over 500 nM.

`CC[C@H](C)[C@@H]1NC(=O)[C@H](C)N(C)C(=O)C[C@@H](C(=O)N2CCCCC2)N(C)C(=O)[C@H](C2CCCCC2)N(C)C(=O)C2(CCCC2)NC(=O)[C@@H]2CCCN2C(=O)[C@H](CCc2cccc(Cl)c2)NC(=O)CN(C)C(=O)[C@H](CC2CCCCC2)N(C)C(=O)CN(C)C(=O)CN(C)C1=O` [Compound 954] ([NMeA]I[Sar][Sar][NMeCha][Sar][hPhe(3-Cl)]P[Ac5c][NMeChg][NMeD]-Piperidide; lactam N-11) was tested. Which IC50 did it give?
Its IC50 is over 500 nM.

For `CC[C@H](C)[C@@H]1NC(=O)[C@H](CC(C)C)N(C)C(=O)C[C@@H](C(=O)N(C)C)N(C)C(=O)[C@H](C2CCCC2)N(C)C(=O)C2(CCCC2)NC(=O)[C@H](Cc2cccc(F)c2)N(C)C(=O)[C@H](CCc2ccc(C(F)(F)F)c(Cl)c2)NC(=O)CN(C)C(=O)[C@H](CC2CCCCC2)N(C)C(=O)[C@@H]2CCN2C(=O)[C@H](C)N(C)C1=O` [Compound 95] ([NMeL]I[NMeA][Aze][NMeCha][Sar][hPhe(3-Cl-4-CF3)][NMePhe(3-F)][Ac5c][NMeGly(cPent)][NMeD]-NMe2; lactam N-11), which IC50 is on record?
The IC50 was over 500 nM.

Which IC50 does the source give for `CC[C@H](C)[C@@H]1NC(=O)[C@H](CC(C)C)N(C)C(=O)C[C@@H](C(=O)N2CCCCC2)N(C)C(=O)[C@H](CCOC)N(C)C(=O)C2(CCCC2)NC(=O)[C@@H]2CCCN2C(=O)[C@H](CCc2ccc(C(F)(F)F)c(Cl)c2)NC(=O)CN(C)C(=O)[C@H](CC2CCCCC2)N(C)C(=O)CN(C)C(=O)CN(C)C1=O` [Compound 744] ([NMeL]I[Sar][Sar][NMeCha][Sar][hPhe(3-Cl-4-CF3)]P[Ac5c][NMehSer](Me)[NMeD]-Piperidide; lactam N-11) here?
Its IC50 is over 500 nM.

For `CC[C@H](C)[C@@H]1NC(=O)[C@H](CC(C)C)N(C)C(=O)C[C@@H](C(=O)N(C)C)N(C)C(=O)[C@H]([C@@H](C)CC)N(C)C(=O)C2(CCCC2)NC(=O)[C@@H](C)NC(=O)[C@H](CCc2ccc(C(F)(F)F)c(Cl)c2)NC(=O)CN(C)C(=O)[C@H](Cc2ccc(C)cc2)N(C)C(=O)[C@@H]2CCN2C(=O)[C@H](C)N(C)C1=O` [Compound 67] ([NMeL]I[NMeA][Aze][NMePhe(4-Me)][Sar][hPhe(3-Cl-4-CF3)][dA][Ac5c][NMeI][NMeD]-NMe2; lactam N-11), which IC50 is on record?
The IC50 was over 500 nM.

Which IC50 does the source give for `CC(C)C[C@H]1C(=O)N[C@@H](CCCCC(F)F)C(=O)N(C)CC(=O)N(C)CC(=O)N(C)[C@@H](CC2CCCCC2)C(=O)N(C)CC(=O)N[C@@H](CCc2ccc(C(F)(F)F)c(Cl)c2)C(=O)N2CCC[C@H]2C(=O)NC2(CCCC2)C(=O)N(C)[C@@H](C2CCCCC2)C(=O)N(C)[C@H](C(=O)N2CCCCC2)CC(=O)N1C` [Compound 92] ([NMeL][hNle(7,7-F2)][Sar][Sar][NMeCha][Sar][hPhe(3-Cl-4-CF3)]P[Ac5c][NMeChg][NMeD]-Piperidide; lactam N-11) here?
The IC50 was over 500 nM.

For `CC[C@H](C)[C@@H]1NC(=O)[C@H](CC(C)C)N(C)C(=O)C[C@@H](C)NC(=O)[C@H](C2CCCCC2)N(C)C(=O)C2(CCCC2)NC(=O)[C@@H]2CCCN2C(=O)[C@H](CCc2ccc(C(F)(F)F)c(Cl)c2)NC(=O)CN(C)C(=O)[C@H](Cc2ccc(C)cc2)N(C)C(=O)CN(C)C(=O)CN(C)C1=O` [Compound 1856] (cyclo([Ac5c][NMeChg][d(β3hA)][NMeL]I[Sar][Sar][NMePhe(4-Me)][Sar][hPhe(3-Cl-4-CF3)]P)), which IC50 is on record?
The IC50 was over 500 nM.

`CC[C@H](C)[C@@H]1NC(=O)[C@H](CC(F)(F)F)N(C)C(=O)C[C@@H](C(=O)N2CCCC2)N(C)C(=O)[C@H](C2CCCCC2)N(C)C(=O)C2(CCCC2)NC(=O)[C@@H]2CC(F)(F)CN2C(=O)[C@H](CCc2cc(F)c(C(F)(F)F)c(F)c2)NC(=O)CN(C)C(=O)[C@H](Cc2ccc(C)cc2)N(C)C(=O)CN(C)C(=O)CN(C)C1=O` [Compound 1317] ([NMeAbu(4,4,4-F3)]I[Sar][Sar][NMePhe(4-Me)][Sar][hPhe(3,5-F2-4-CF3)][Pro(4,4-F2)][Ac5c][NMeChg][NMeD]-Pyrrolidide; lactam N-11) was tested. Which IC50 did it give?
Its IC50 is at most 20 nM.

With `CCCC[C@@H]1NC(=O)[C@H](CCc2ccc(C(F)(F)F)c(Cl)c2)NC(=O)CN(C)C(=O)[C@H](CC2CCCC2)N(C)C(=O)[C@@H]2CCN2C(=O)[C@H](C)N(C)C(=O)[C@H]([C@@H](C)CC)NC(=O)[C@H](CC(C)C)N(C)C(=O)C[C@@H](C(=O)N2CCCCC2)N(C)C(=O)[C@H](CC(C)C)NC(=O)C(C)(C)N(C)C1=O` [Compound 691] ([NMeL]I[NMeA][Aze][NMeAla(cPent)][Sar][hPhe(3-Cl-4-CF3)][Nle][NMeAib]L[NMeD]-Piperidide; lactam N-11) as the compound, how does the IC50 read?
Its IC50 is over 500 nM.
